Test results published in patent US9062041B2 (Bayer Intellectual Property GmbH, priority 2011, dated 2015).

Legend:
Assay type in all cases: cell-based
[1] = molecular target: EP2 subtype of the human PGE2 receptor (Homo sapiens, UniProt P43116); assay: cAMP antagonism test on the human EP2 receptor (HTRF cAMP detection); details: hEP2 receptor, read-out: Antagonism hEP2 IC50
Outline: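 Read-out is a competitive HTRF for cAMP: lysate cAMP displaces cAMP-d2 from Eu cryptate-labelled antibody, and antagonism raises the 665/620 nm ratio. Compound (0.8 nM–16.5 μM) added to EP2 cells 20 min at RT before 60 min PGE2 challenge (3× stock 1.5 nM) with IBMX, followed by 20 min lysis.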

[2] = molecular target: EP4 subtype of the human PGE2 receptor (Homo sapiens, UniProt P35408); assay: cAMP antagonism test on the human EP4 receptor (HTRF cAMP detection); details: selectivity towards hEP4, IC50 measured by cAMP antagonism test
Chain of EP4 subtype of the human PGE2 receptor (P35408 whole entry): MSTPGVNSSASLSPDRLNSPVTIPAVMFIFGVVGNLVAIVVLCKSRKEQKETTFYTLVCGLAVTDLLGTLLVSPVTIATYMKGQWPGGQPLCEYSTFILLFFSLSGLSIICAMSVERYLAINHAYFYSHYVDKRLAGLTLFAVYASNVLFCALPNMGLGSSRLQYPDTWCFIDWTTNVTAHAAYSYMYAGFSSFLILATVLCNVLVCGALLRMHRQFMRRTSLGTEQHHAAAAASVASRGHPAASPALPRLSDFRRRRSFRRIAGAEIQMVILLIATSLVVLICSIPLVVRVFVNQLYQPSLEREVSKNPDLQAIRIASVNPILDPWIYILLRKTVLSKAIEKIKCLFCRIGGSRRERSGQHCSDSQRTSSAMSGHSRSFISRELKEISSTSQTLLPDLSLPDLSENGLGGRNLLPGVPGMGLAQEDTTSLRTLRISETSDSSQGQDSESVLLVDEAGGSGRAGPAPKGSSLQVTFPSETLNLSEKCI
Outline: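 Competitive HTRF cAMP read-out (cAMP-d2 vs Eu-cryptate anti-cAMP antibody, 665/620 nm ratio) on lysed human EP4 cells. Compound (0.8 nM–16.5 μM) applied 20 min at RT before 60 min PGE2 challenge (3× solution 0.3 nM, IBMX present); 20 min lysis precedes reading.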

[3] = molecular target: T1, human PGD receptor (Homo sapiens, UniProt Q13258); assay: cAMP antagonism test on the human prostaglandin D receptor (HTRF cAMP detection); details: selectivity towards hDP, IC50 measured by cAMP antagonism test
T1 sequence (Q13258 1-359): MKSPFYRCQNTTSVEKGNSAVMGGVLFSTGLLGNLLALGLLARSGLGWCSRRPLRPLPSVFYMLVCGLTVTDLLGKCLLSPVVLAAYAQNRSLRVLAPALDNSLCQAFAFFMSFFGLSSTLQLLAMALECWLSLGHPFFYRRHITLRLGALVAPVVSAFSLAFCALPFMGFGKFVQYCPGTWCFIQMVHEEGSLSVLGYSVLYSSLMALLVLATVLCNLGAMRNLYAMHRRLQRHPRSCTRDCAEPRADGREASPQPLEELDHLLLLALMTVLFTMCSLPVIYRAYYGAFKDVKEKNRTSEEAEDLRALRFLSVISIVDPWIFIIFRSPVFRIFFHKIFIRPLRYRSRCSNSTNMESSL
Outline: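 HTRF competition read-out (665/620 nm ratio ×10000), where higher FRET means less cAMP, i.e. antagonism. Compounds (0.8 nM–16.5 μM) were preincubated 20 min at RT with cells and cAMP-d2, PGD2 (3× solution, 6 nM) in IBMX-containing PBS added for 30 min at RT, then cells lysed 20 min.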

Chain of EP2 subtype of the human PGE2 receptor (P43116 whole entry): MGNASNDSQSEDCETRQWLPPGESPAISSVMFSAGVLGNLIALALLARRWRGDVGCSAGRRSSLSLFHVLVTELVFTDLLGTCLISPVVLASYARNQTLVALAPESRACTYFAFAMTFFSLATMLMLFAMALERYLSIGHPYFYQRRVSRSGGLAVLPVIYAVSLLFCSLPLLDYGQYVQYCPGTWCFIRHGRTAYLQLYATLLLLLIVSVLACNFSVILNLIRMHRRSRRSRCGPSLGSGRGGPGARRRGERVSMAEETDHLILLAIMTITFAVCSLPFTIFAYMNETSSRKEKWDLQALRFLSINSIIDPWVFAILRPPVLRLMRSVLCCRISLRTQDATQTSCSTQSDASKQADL

Compound | IC50 [1] | Selectivity hEP2/hEP4 [2] | Selectivity hEP2/hDP [3]
Cc1c(C(=O)NCC(F)(F)F)ccc2nn(CC3CCN(C(=O)c4ccc(-c5ccc(F)cn5)cc4)CC3)cc12 [Example 325, 2-({1-[4-(5-fluoropyridin-2-yl)benzoyl]piperidin-4-yl}methyl)-4-methyl-N-(2,2,2-trifluoroethyl)-2H-indazol-5-carboxamide] | 321 nM | xx (xx: 10-100) | xx (xx: 10-100)
Cc1ncc(-c2ccc(C(=O)N3CCC(Cn4cc5c(C)c(C(=O)NCC(F)(F)F)ccc5n4)CC3)cc2)cn1 [Example 327, 4-methyl-2-({1-[4-(2-methylpyrimidin-5-yl)benzoyl]piperidin-4-yl}methyl)-N-(2,2,2-trifluoroethyl)-2H-indazol-5-carboxamide] | 1210 nM | xx (xx: 10-100) | xx (xx: 10-100)
Cc1c(C(=O)NCC(F)(F)F)ccc2nn(CC3CCN(C(=O)c4ccc(-c5cccc(C(F)(F)F)n5)cc4)CC3)cc12 [Example 329, 4-methyl-N-(2,2,2-trifluoroethyl)-2-[(1-{4-[6-(trifluoromethyl)pyridin-2-yl]-benzoyl}piperidin-4-yl)methyl]-2H-indazol-5-carboxamide] | 232 nM | xx (xx: 10-100) | xx (xx: 10-100)
COCCNC(=O)c1ccc2nn(CC3CCN(C(=O)c4ccc(Oc5ccc(C#N)cc5)cc4)CC3)cc2c1C [Example 330, 2-({1-[4-(4-cyanophenoxy)benzoyl]piperidin-4-yl}methyl)-N-(2-methoxyethyl)-4-methyl-2H-indazol-5-carboxamide] | 9.53 nM | xxx (xxx > 100) | xxx (xxx > 100)

Continued by falling IC50 [1], values first:

IC50 [1] | Selectivity hEP2/hEP4 [2] | Selectivity hEP2/hDP [3] | Compound
485 nM | xx (xx: 10-100) | xx (xx: 10-100) | COc1ccc(-c2ccc(C(=O)N3CCC(Cn4cc5c(C)c(C(=O)NCC(F)(F)F)ccc5n4)CC3)cc2)nc1 [Example 326, 2-({1-[4-(5-methoxypyridin-2-yl)benzoyl]piperidin-4-yl}methyl)-4-methyl-N-(2,2,2-trifluoroethyl)-2H-indazol-5-carboxamide]
460 nM | xx (xx: 10-100) | xx (xx: 10-100) | Cc1ccc(-c2ccc(C(=O)N3CCC(Cn4cc5c(C)c(C(=O)NCC(F)(F)F)ccc5n4)CC3)cc2)nc1 [Example 324, 4-methyl-2-({1-[4-(5-methylpyridin-2-yl)benzoyl]piperidin-4-yl}methyl)-N-(2,2,2-trifluoroethyl)-2H-indazol-5-carboxamide]
256 nM | xx (xx: 10-100) | xx (xx: 10-100) | Cc1c(C(=O)NCC(F)(F)F)ccc2nn(CC3CCN(C(=O)c4ccc(-c5cnc(C(F)(F)F)nc5)cc4)CC3)cc12 [Example 328, 4-methyl-N-(2,2,2-trifluoroethyl)-2-[(1-{4-[2-(trifluoromethyl)pyrimidin-5-yl]-benzoyl}piperidin-4-yl)methyl]-2H-indazol-5-carboxamide]
128 nM | xxx (xxx > 100) | xxx (xxx > 100) | COc1cccc(-c2ccc(C(=O)N3CCC(Cn4cc5c(C)c(C(=O)NCC(F)(F)F)ccc5n4)CC3)cc2)n1 [Example 323, 2-({1-[4-(6-methoxypyridin-2-yl)benzoyl]piperidin-4-yl}methyl)-4-methyl-N-(2,2,2-trifluoroethyl)-2H-indazol-5-carboxamide]
9.47 nM | xxx (xxx > 100) | xxx (xxx > 100) | COCCNC(=O)c1ccc2nn(CC3CCN(C(=O)c4cn(C)c5ccccc45)CC3)cc2c1C [Example 331, N-(2-methoxyethyl)-4-methyl-2-({1-[(1-methyl-1H-indol-3-yl)carbonyl]-piperidin-4-yl}methyl)-2H-indazol-5-carboxamide]
